This passage reports IC50 results from patent US20220289685A1, “ANTIMALARIAL HEXAHYDROPYRIMIDINE ANALOGUES” (UCB BIOPHARMA SRL, priority 2019, published 2022).

The structures appear in SMILES notation. Where a name gives a salt, the structure may show the parent alone.

In one assay the test system is Plasmodium falciparum 3D7 strain. The experiment in a line: P. falciparum 3D7 asexual blood stage assay (SYBR green readout). It is filed as cell-based. To be noted: Plasmodium falciparum, 3D7, Erythrocyte, 72 h. In a few lines:
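P. falciparum 3D7 in A+ erythrocytes (5% haematocrit, 0.5% parasitaemia) exposed 72 h at 37 °C under 1% O2/3% CO2 to 20-point 1.5-fold titrations, 50,000–15 nM in 0.5% DMSO. SYBR green lysis overnight, fluorescence 485/528 nm; normalized to mefloquine and DMSO, EC50 from biphasic two-site fit.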
The compound `C[C@@H]1C[C@H](N2C(=N)N[C@](C)(c3cccc(NC(=O)c4cc(C#N)cn4C)c3Cl)CC2=O)CCO1` (relative stereo) [Example 113, N-(2-Chloro-3-{(4S)-2-imino-4-methyl-1-[(2R*,4R*)-2-methyl-tetrahydropyran-4-yl]-6-oxo-hexahydropyrimidin-4-yl}phenyl)-4-cyano-1-methylpyrrole-2-carboxamide trifluoroacetic acid salt] came in with an IC50 of 5 nM. For the compound `COc1nccc(C(F)(F)F)c1C(=O)Nc1cccc([C@]2(C)CC(=O)N([C@@H]3CCO[C@H](C)C3)C(=N)N2)c1Cl` (relative stereo) [Example 114, N-(2-Chloro-3-{(4S)-2-imino-4-methyl-1-[(2R*,4R*)-2-methyl-tetrahydropyran-4-yl]-6-oxo-hexahydropyrimidin-4-yl]phenyl)-2-methoxy-4-(trifluoromethyl)-pyridine-3-carboxamide hydrochloride], half-maximal inhibition (IC50) was put at 53 nM. Still for that read-out and setting: the figure for `C[C@@H]1C[C@H](N2C(=N)N[C@](C)(c3cccc(NC(=O)c4ccc(C#N)o4)c3Cl)CC2=O)CCO1` (relative stereo) [Example 115, N-(2-Chloro-3-{(4S)-2-imino-4-methyl-1-[(2R*,4R*)-2-methyl-tetrahydropyran-4-yl]-6-oxo-hexahydropyrimidin-4-yl]phenyl)-5-cyanofuran-2-carboxamide trifluoroacetic acid salt] is 18 nM; for `C[C@@H]1C[C@H](N2C(=N)N[C@](C)(c3cccc(NC(=O)c4ccc(F)c(C#N)c4)c3Cl)CC2=O)CCO1` (relative stereo) [Example 116, N-(2-Chloro-3-{(4S)-2-imino-4-methyl-1-[(2R* ,4R* )-2-methyl-tetrahydropyran-4-yl]-6-oxo-hexahydropyrimidin-4-yl]phenyl)-3-cyano-4-fluorobenzamide trifluoroacetic acid salt] it is 89 nM. The compound `C[C@@H]1C[C@H](N2C(=N)N[C@](C)(c3cccc(NC(=O)c4ccc(Cl)c(C#N)c4)c3Cl)CC2=O)CCO1` (relative stereo) [Example 117, 4-Chloro-N-(2-chloro-3-{(4S)-2-imino-4-methyl-1-[(2R*,4R*)-2-methyltetrahydropyran-4-yl]-6-oxo-hexahydropyrimidin-4-yl}phenyl)-3-cyanobenzamide trifluoroacetic acid salt] displayed an IC50 of 17 nM.

Compound `C[C@@]1(c2cccc(NC(=O)c3ccccc3)c2Cl)CC(=O)N(C2CCOCC2)C(=N)N1` [Example 1, N-{2-Chloro-3-[(4S)-2-imino-4-methyl-6-oxo-1-(tetrahydropyran-4-yl)hexahydropyrimidin-4-yl]-phenyl]benzamide trifluoroacetic acid salt] displayed an IC50 of 227 nM. The same measure, in the same setting: the result for `C[C@@]1(c2cccc(NC(=O)c3ccc(Cl)cn3)c2Cl)CC(=O)N(C2CCOCC2)C(=N)N1` [Example 2, 5-Chloro-N-{2-chloro-3-[(4S)-2-imino-4-methyl-6-oxo-1-(tetrahydropyran-4-yl)hexahydro-pyrimidin-4-yl]phenyl}pyridine-2-carboxamide trifluoroacetic acid salt] reads 1120 nM. The compound `C[C@@]1(c2cccc(NC(=O)c3cccc(C#N)c3)c2Cl)CC(=O)N(C2CCC(F)(F)CC2)C(=N)N1` [Example 23, N-{2-Chloro-3-[(4S)-1-(4,4-difluorocyclohexyl)-2-imino-4-methyl-6-oxohexahydropyrimidin-4-yl]phenyl}-3-cyanobenzamide hydrochloride] registered an IC50 of 68 nM.

Staying with this assay, now noted: Plasmodium falciparum, Erythrocyte; P. falciparum 3D7 in human erythrocytes, 72 h incubation, SYBR green fluorescence; read-out: IC50.
`C[C@@H]1C[C@H](N2C(=N)N[C@](C)(c3cccc(NC(=O)c4ccc[n+]([O-])c4)c3Cl)CC2=O)CCO1` (relative stereo) [Example 112, N-(2-Chloro-3-{(4S)-2-imino-4-methyl-1-[(2R*,4R*)-2-methyl-tetrahydropyran-4-yl]-6-oxo-hexahydropyrimidin-4-yl]phenyl)-1-oxidopyridin-1-ium-3-carboxamide hydrochloride]: the IC50 was 707 nM.
